For orientation: IC50 means the midpoint of a concentration-inhibition curve. The low end stands for inhibition by little substance, the high end for a need for much substance. Broadly, the MIC is the smallest concentration in the dilution series that meets the test's criterion for growth inhibition.

Each structure is given as a SMILES string. In brackets after ≈: the same amount, converted by molar mass.

In patent US20200095236A1, “ANTIBACTERIAL COMPOUNDS” (FORGE THERAPEUTICS, INC., priority 2017, published 2020) one finds IC50, MIC and activity data, which are given here for 2 compounds.

One experiment has as its target E. coli LpxC (Escherichia coli, UniProt P0A725). As to the kind of experiment: LpxC Binding Assay (Rapid Fire MS assay). The format is biochemical.
A further experiment concerns K. pneumoniae. The experiment is described as follows: Bacterial susceptibility testing, MIC by broth microdilution (CLSI). Type of experiment: cell-based. To be noted: Klebsiella pneumoniae; broth microdilution, 35° C., 18-24 h; read-out: K. pneumoniae MIC. In short, it runs like this: (§1)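 CLSI broth microdilution in cation-adjusted Mueller-Hinton broth with 2-fold serial drug dilutions; final inoculum 3×10^5–7×10^5 CFU/mL. Incubated 18-24 h at 35° C in ambient air; MIC is the lowest concentration preventing visible growth (OD600 nm<0.05).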
In general terms: Broth dilution looks for growth in wells or tubes with falling amounts of substance.

Another experiment deals with E. coli. The description is as above. The format is cell-based. To be noted: Escherichia coli; broth microdilution, 35° C., 18-24 h; read-out: E. coli MIC. In outline:
as §1

For another experiment, the system named is S. aureus. The description is as above. Type of experiment: cell-based. The settings on record: Staphylococcus aureus; broth microdilution, 35° C., 18-24 h; read-out: S. aureus MIC. In short, it runs like this:
as §1

For experiment [1], the system named is TLR-4 activity of A. baumannii culture supernatants. As to the kind of experiment: TLR4 assay: TLR4 activity of A. baumannii culture supernatants in HEK-Blue-hTLR4 cells. The format is cell-based. To be noted: Acinetobacter baumannii, HEK-Blue hTLR4, read-out: % TLR-4 activity. In short, it runs like this: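 A. baumannii was grown to mid-log phase with LpxC inhibitors, and culture supernatants were filter-sterilized and diluted 1:1000. Supernatant TLR4 activity was measured in HEK-Blue-hTLR4 cells carrying an NF-kB/AP-1-driven SEAP reporter and reported as % TLR-4 activity.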

Sequence of E. coli LpxC (P0A725 whole entry): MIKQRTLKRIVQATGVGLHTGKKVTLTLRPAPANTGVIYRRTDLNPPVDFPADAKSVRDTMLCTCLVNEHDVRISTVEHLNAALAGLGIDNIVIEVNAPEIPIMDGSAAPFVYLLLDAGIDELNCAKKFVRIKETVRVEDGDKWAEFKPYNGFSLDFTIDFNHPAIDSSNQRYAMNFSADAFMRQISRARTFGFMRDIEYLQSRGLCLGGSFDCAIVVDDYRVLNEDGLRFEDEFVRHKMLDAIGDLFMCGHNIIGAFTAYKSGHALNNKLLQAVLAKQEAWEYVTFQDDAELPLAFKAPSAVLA

Regarding `O=C(NCCF)C(Cc1ccc(C#Cc2ccc(CN3CCOCC3)cc2)cc1)c1nc[nH]c(=O)c1O` (centres unmarked) [Compound 3, N-(2-fluoroethyl)-2-(5-hydroxy-6-oxo-1,6-dihydropyrimidin-4-yl)-3-(4-((4-(morpholinomethyl)phenyl)ethynyl)phenyl) propanamide], the IC50 at E. coli LpxC lay in the range of 10 to 50 nM. Further, the MIC in the experiment with K. pneumoniae lay in the range of 1 to 8 µg/mL (≈ 1.98 to 15.9 µM). In the experiment with E. coli, the MIC is less than 1 µg/mL. Also, the MIC in the experiment on S. aureus is more than 32 µg/mL. In experiment [1], the activity at 4 µg/mL is 50 to 80%, the activity at 8 µg/mL is 20 to 50% and the activity at 16 µg/mL lay within 20 to 50%.

On to `O=C(NCC(Cc1ccc(C#Cc2ccc(CN3CCOCC3)cc2)cc1)c1nc[nH]c(=O)c1O)C(F)F` (centres unmarked) [Compound 15, 2,2-difluoro-N-(2-(5-hydroxy-6-oxo-1,6-dihydropyrimidin-4-yl)-3-(4-((4-(morpholinomethyl)phenyl)ethynyl)phenyl)propyl)acetamide], for which, at E. coli LpxC, the IC50 lay within 10 to 50 nM. For the same compound, in the experiment on K. pneumoniae, the minimal inhibitory concentration (MIC) lay within 1 to 8 µg/mL (≈ 1.91 to 15.3 µM). In addition, in the experiment with E. coli, the MIC is less than 1 µg/mL. In the experiment on S. aureus, the MIC was more than 32 µg/mL. Further, in experiment [1], the activity at 4 µg/mL lay in the range of 50 to 80%, the activity at 8 µg/mL was 50 to 80% and the activity at 16 µg/mL was less than 20%.
